Assay results reported in patent publication US12180191B1, “2-[(1H-benzimidazol-2-yl)imino]-5,5-diphenylimidazolidin-4-one as an antimicrobial compound” (KING FAISAL UNIVERSITY, priority 2023, dated 2024).

How the values were obtained:
Format in all cases: cell-based
Aspergillus flavus = experiment: Agar plate disc-diffusion, antifungal inhibition zone; details: Sabouraud's dextrose agar, 72 hours
Protocol: (§1) The agar plate disc-diffusion method was applied. Sterilized filter papers (6 mm in diameter) were wetted with 10 μL of a solution of 2-[(1H-benzimidazol-2-yl)imino]-5,5-diphenylimidazolidin-4-one (3) to be tested, containing 10 mg/mL in DMSO, and the discs were allowed to air dry. The discs were then placed onto the surface of agar plates (nutrient agar for bacteria and Sabouraud's dextrose agar for fungi) seeded with the test organism. Each plate contained 15 mL of the agar medium, previously seeded with 0.2 mL of the broth culture of each organism pregrown for 18 hours. The plates were incubated at 37° C. for 48 hours, and 72 hours for fungi. The inhibition zones were measured in millimeter. Discs impregnated with DMSO were used as a control, and its inhibition zone was subtracted from the tested compound actual inhibition zone.
(§2) The results of the antimicrobial testing can be observed in Tables 1 and 2, below, with ciprofloxacin serving as a reference.

Escherichia coli = experiment: Agar plate disc-diffusion, antibacterial inhibition zone; details: nutrient agar, 37° C., 48 hours
Protocol: as §1, with “Sterilized filter papers (6 mm in diameter) were wetted with 10 μL of a solution of 2-[(1H-benzimidazol-2-yl)imino]-5,5-diphenylimidazolidin-4-one (3) to be tested, containing 10 mg/mL in DMSO, and the discs were allowed to air dry.” left out
as §2

Pseudomonas aeruginosa = experiment: as above; details: nutrient agar, 37° C., 48 hours
Protocol: as §1, with “Sterilized filter papers (6 mm in diameter) were wetted with 10 μL of a solution of 2-[(1H-benzimidazol-2-yl)imino]-5,5-diphenylimidazolidin-4-one (3) to be tested, containing 10 mg/mL in DMSO, and the discs were allowed to air dry.” left out
as §2

Bacillus cereus = experiment: as above; details: nutrient agar, 37° C., 48 hours
Protocol: as §1, with “Sterilized filter papers (6 mm in diameter) were wetted with 10 μL of a solution of 2-[(1H-benzimidazol-2-yl)imino]-5,5-diphenylimidazolidin-4-one (3) to be tested, containing 10 mg/mL in DMSO, and the discs were allowed to air dry.” left out
as §2

Staphylococcus aureus = experiment: as above; details: nutrient agar, 37° C., 48 hours
Protocol: as §1, §2

[1] = test system: Chrysosporium keratinophilum; experiment: Agar plate disc-diffusion, antifungal inhibition zone; details: Sabouraud's dextrose agar, 72 hours
Protocol: as §1, with “Sterilized filter papers (6 mm in diameter) were wetted with 10 μL of a solution of 2-[(1H-benzimidazol-2-yl)imino]-5,5-diphenylimidazolidin-4-one (3) to be tested, containing 10 mg/mL in DMSO, and the discs were allowed to air dry.” left out
as §2

[2] = A = concentration of comp. = 10,000 μL
[3] = B = concentration of comp. = 30.000 μL
[4] = C = concentration of comp. = 50,000 μL

Compound	inhibition zone, Aspergillus flavus (Aspergillus flavus; [2]) [millimeter]	inhibition zone, Aspergillus flavus (Aspergillus flavus; [3]) [millimeter]	inhibition zone, Aspergillus flavus (Aspergillus flavus; [4]) [millimeter]	inhibition zone, Escherichia coli (Escherichia coli; [2]) [millimeter]	inhibition zone, Escherichia coli (Escherichia coli; [3]) [millimeter]	inhibition zone, Escherichia coli (Escherichia coli; [4]) [millimeter]	inhibition zone, Pseudomonas aeruginosa (Pseudomonas aeruginosa; [2]) [millimeter]	inhibition zone, Pseudomonas aeruginosa (Pseudomonas aeruginosa; [3]) [millimeter]	inhibition zone, Pseudomonas aeruginosa (Pseudomonas aeruginosa; [4]) [millimeter]	inhibition zone, Bacillus Cereus (Bacillus cereus; [2]) [millimeter]	inhibition zone, Bacillus Cereus (Bacillus cereus; [3]) [millimeter]	inhibition zone, Bacillus Cereus (Bacillus cereus; [4]) [millimeter]	inhibition zone, Staphylococcus aureus (Staphylococcus aureus; [2]) [millimeter]	inhibition zone, Staphylococcus aureus (Staphylococcus aureus; [3]) [millimeter]	inhibition zone, Staphylococcus aureus (Staphylococcus aureus; [4]) [millimeter]	inhibition zone, Chrysosporium keratinophilum [1, 2] [millimeter]	inhibition zone, Chrysosporium keratinophilum [1, 3] [millimeter]	inhibition zone, Chrysosporium keratinophilum [1, 4] [millimeter]
O=C1N/C(=N/c2nc3ccccc3[nH]2)NC1(c1ccccc1)c1ccccc1 [Compound 3, 2-[(1H-benzimidazol-2-yl)imino]-5,5-diphenylimidazolidin-4-one]	18	23	35	27	36	50	25	32	43	18	24	38	16	20	30	24	29	49
O=C(O)c1cn(C2CC2)c2cc(N3CCNCC3)c(F)cc2c1=O [Cip., ciprofloxacin]	29	30	42	30	39	60	29	30	53	29	31	42	42	44	53	29	30	53
